Measurements reported in DBAASP.
≈ marks a conversion by molar mass, not a printed value.

Key:
Assay in all cases: ≥ marks a high value that may be exact or a test limit, other limits are often not marked, values filed in µg/mL are converted to µM
[1] = test system: Pseudomonas syringae pv. tomato DC3000
[2] = test system: Pectobacterium carotovorum subsp. carotovorum DSM 30168
[3] = test system: Pseudomonas corrugata DSM 7228
[4] = test system: Xanthomonas vesicatoria DSM 50861
[5] = test system: Clavibacter michiganensis subsp. michiganensis DSM 46294
[6] = test system: Pseudomonas syringae pv. syringae DSM 10604
Micrococcus luteus = test system: Micrococcus luteus
Staphylococcus aureus = test system: Staphylococcus aureus
Bacillus subtilis = test system: Bacillus subtilis
Klebsiella pneumoniae = test system: Klebsiella pneumoniae
Salmonella typhimurium = test system: Salmonella typhimurium
Shigella dysenteriae = test system: Shigella dysenteriae
Pseudomonas aeruginosa = test system: Pseudomonas aeruginosa
Proteus mirabilis = test system: Proteus mirabilis
[7] = test system: Staphylococcus epidermidis
Escherichia coli = test system: Escherichia coli
Escherichia coli BL21 = test system: Escherichia coli BL21
[8] = test system: Pseudomonas aeruginosa PAO1

Row | Structure (SMILES) | MIC [1] [µM] | MIC [2] [µM] | MIC [3] [µM] | MIC [4] [µM] | MIC [5] [µM] | MIC [6] [µM] | MIC (Micrococcus luteus) [µM] | MIC (Staphylococcus aureus) [µM] | MIC (Bacillus subtilis) [µM] | MIC (Klebsiella pneumoniae) [µM] | MIC (Salmonella typhimurium) [µM] | MIC (Shigella dysenteriae) [µM] | MIC (Pseudomonas aeruginosa) [µM] | MIC (Proteus mirabilis) [µM] | MIC [7] [µM] | MIC (Escherichia coli) [µM] | MIC (Escherichia coli BL21) [µM] | MIC [8] [µM]
1 | CC(C)C[C@H](NC(=O)[C@H](C)NC(=O)CNC(=O)[C@H](CC(C)C)NC(=O)[C@@H](N)Cc1ccccc1)C(=O)N[C@@H](Cc1ccccc1)C(=O)N[C@@H](CCCCN)C(=O)N[C@H](C(=O)N[C@@H](C)C(=O)O)C(C)C [FLGALFKVA] | – | – | – | – | – | – | ≥ 207 | > 207 | ≥ 207 | > 207 | ≥ 207 | ≥ 207 | > 207 | ≥ 207 | ≥ 207 | > 207 | – | –
2 | CC(C)C[C@H](NC(=O)[C@H](C)NC(=O)CNC(=O)[C@H](CC(C)C)NC(=O)[C@@H](N)Cc1ccccc1)C(=O)N[C@@H](Cc1ccccc1)C(=O)N[C@@H](CCCCN)C(=O)N[C@@H](CCCCN)C(=O)N[C@@H](C)C(=O)N[C@@H](CO)C(=O)N[C@@H](CCCCN)C(=O)O [FLGALFKKASK] | – | – | – | – | – | – | 10.3 (≈ 12.5 µg/mL) | 165 (≈ 200 µg/mL) | ≥ 82.7 | > 165 | ≥ 165 | ≥ 165 | > 165 | ≥ 165 | ≥ 165 | > 165 | – | –

Further lines, results first:

Row | MIC [1] [µM] | MIC [2] [µM] | MIC [3] [µM] | MIC [4] [µM] | MIC [5] [µM] | MIC [6] [µM] | MIC (Micrococcus luteus) [µM] | MIC (Staphylococcus aureus) [µM] | MIC (Bacillus subtilis) [µM] | MIC (Klebsiella pneumoniae) [µM] | MIC (Salmonella typhimurium) [µM] | MIC (Shigella dysenteriae) [µM] | MIC (Pseudomonas aeruginosa) [µM] | MIC (Proteus mirabilis) [µM] | MIC [7] [µM] | MIC (Escherichia coli) [µM] | MIC (Escherichia coli BL21) [µM] | MIC [8] [µM] | Structure (SMILES)
3 | 0.414 (≈ 1 µg/mL) | 4.14 (≈ 10 µg/mL) | 0.103 (≈ 0.25 µg/mL) | 0.0414 (≈ 0.0999 µg/mL) | 0.0414 (≈ 0.0999 µg/mL) | 4.14 (≈ 10 µg/mL) | – | – | – | – | – | – | – | – | – | – | – | – | CC(C)C[C@H](NC(=O)[C@H](C)NC(=O)[C@H](CC(C)C)NC(=O)[C@H](CCCN=C(N)N)NC(=O)[C@H](CCCN=C(N)N)NC(=O)[C@@H](N)CCCCN)C(=O)N[C@@H](Cc1ccccc1)C(=O)N[C@@H](CCCN=C(N)N)C(=O)N[C@@H](C)C(=O)N[C@@H](Cc1ccccc1)C(=O)N[C@@H](CCCN=C(N)N)C(=O)N[C@@H](CC(C)C)C(=O)N[C@@H](C)C(=O)N[C@@H](CC(C)C)C(=O)N[C@@H](CCCCN)C(=O)N[C@@H](CO)C(=O)N[C@H](C(=O)N[C@@H](CC(C)C)C(=O)N[C@@H](CCCCN)C(=O)N[C@@H](CCCCN)C(N)=O)C(C)C [KRRLALFRAFRLALKSVLKK]
4 | 4.11 (≈ 10 µg/mL) | 4.11 (≈ 10 µg/mL) | 0.103 (≈ 0.25 µg/mL) | 0.0411 (≈ 0.0999 µg/mL) | 0.103 (≈ 0.25 µg/mL) | 4.11 (≈ 10 µg/mL) | – | – | – | – | – | – | – | – | – | – | – | – | CC[C@H](C)[C@H](NC(=O)[C@H](C)NC(=O)[C@H](CCCCN)NC(=O)[C@H](C)NC(=O)[C@@H](NC(=O)[C@H](CC(C)C)NC(=O)[C@H](CCCCN)NC(=O)[C@H](CC(C)C)NC(=O)[C@@H](NC(=O)[C@H](CCCCN)NC(=O)[C@@H](NC(=O)[C@H](C)NC(=O)[C@H](CCCCN)NC(=O)[C@H](CCCN=C(N)N)NC(=O)[C@H](CCCN=C(N)N)NC(=O)[C@@H](N)CCCCN)[C@@H](C)CC)[C@@H](C)CC)[C@@H](C)CC)C(=O)N[C@@H](CCCN=C(N)N)C(=O)N[C@@H](CCCCN)C(=O)N[C@@H](CCCCN)C(=O)N[C@@H](CCCN=C(N)N)C(N)=O [KRRKAIKILKLIAKAIRKKR]
5 | – | – | – | – | – | – | ≥ 164 | 82 (≈ 100 µg/mL) | ≥ 164 | 82 (≈ 100 µg/mL) | ≥ 164 | ≥ 164 | > 164 | ≥ 164 | ≥ 164 | 164 (≈ 200 µg/mL) | – | – | CC(C)C[C@H](NC(=O)[C@H](C)NC(=O)CNC(=O)[C@H](CC(C)C)NC(=O)[C@@H](N)Cc1ccccc1)C(=O)N[C@@H](Cc1c[nH]c2ccccc12)C(=O)N[C@@H](CCCCN)C(=O)N[C@H](C(=O)N[C@@H](C)C(=O)N[C@@H](CO)C(=O)N[C@@H](CCCCN)C(=O)O)C(C)C [FLGALWKVASK]
6 | – | – | – | – | – | – | – | – | – | – | – | – | – | – | – | – | ≥ 128 | 32 (≈ 69.4 µg/mL) | CC[C@H](C)[C@H](NC(=O)[C@H](C)NC(=O)[C@H](Cc1ccccc1)NC(=O)[C@H](CCCCN)NC(=O)[C@@H](N)C(C)C)C(=O)N[C@@H](CCCCN)C(=O)N[C@@H](CCCCN)C(=O)N[C@H](C(=O)NCC(=O)N[C@@H](CCCCN)C(=O)N[C@@H](CCCCN)C(=O)N[C@@H](C)C(=O)N[C@@H](C)C(=O)N[C@@H](CCCCN)C(=O)N[C@@H](CCCCN)C(=O)N[C@H](C(=O)N[C@H](C(=O)N[C@H](C(=O)N[C@@H](CCCCN)C(=O)N[C@@H](C)C(=O)O)C(C)C)[C@@H](C)CC)C(C)C)[C@@H](C)CC [VKFAIKKIGKKAAKKVIVKA]
